From ChEMBL document CHEMBL1147316, “Turbinaric acid, a cytotoxic secosqualene carboxylic acid from the brown alga Turbinaria ornata” (J Nat Prod, 1989)
The source made the active and inactive calls. No cut-off for these calls is given here.

Tests used:
Melanoma tumor cell line = experiment: Cytotoxicity against mouse melanoma cells at 26.6 ug/mL; type: functional, cell-based
Cancer cell lines = experiment: Cytotoxicity against human colon cancer cells at 12.5 ug/mL; type: functional, cell-based

Q: Which Activity (Melanoma tumor cell line) does the source give for `CC(C)=CCC/C(C)=C/CC/C(C)=C/CC/C=C(\C)CC/C=C(\C)CCC(=O)O` here?
A: The Activity was “Active”.

Q: And the Activity (Cancer cell lines)?
A: Its Activity is “Active”.
